{
  "source": "patent US20250026741A1",
  "about": "“INHIBITORS OF THE ONCOGENIC SHP2 PHOSPHATASE AND USES THEREOF” (Sanford Burnham Prebys Medical Discovery Institute, priority 2021, published 2025)",
  "key": {"[1]": {"tested_on": "p-ERK1/2 in MOLM-13 AML cells", "experiment": "Phospho-ERK1/2 immunoblot analysis, MOLM-13", "format": "cell-based", "settings": "MOLM-13, 3 h treatment; #02 3, 10, 30 μM; RMC-4550 1 μM", "description": "Because SHP2 activity is critical for ERK activation, we used phospho-ERK1/2 (p-ERK1/2) as a more direct readout of SHP2 inhibitor efficacy. […] However, a greater effect of #02 was observed after 24 h treatment. […] This p-ERK rebound in MOLM-13 cells treated with RMC-4550 is reminiscent of previously reported data from human hepatoma Hep3B cells treated with SHP099.\nTotal protein extracts were prepared in modified RIPA lysis buffer (25 mM Tris-HCl, pH 7.4, 10% glycerol, 0.2% Triton™ X-100, 150 mM NaCl, 2 mM Na3VO4, 1 mM EDTA) containing a protease inhibitor cocktail (Roche Applied Science, Indianapolis, IN). Equal amounts of protein were separated on 4-12% (p-ERK1/2 blots) or 4-20% (SHP2 blots) Bis-Tris gels by SDS-PAGE and transferred to nitrocellulose (p-ERK1/2 blots) or 0.2 μm PVDF (SHP2 blots) membranes. Membranes were blocked in 5% dry milk (Bio-Rad, Hercules, CA) in TBS-Tween 20 (0.1% vol/vol; TBS-T) for 1 h at room temperature. Protein-bound membranes were incubated with indicated primary antibody overnight at 4° C. After washing three times with TBS-T, membranes were incubated for 1 h with horseradish peroxidase-conjugated secondary antibody, then visualized by an ECL Prime detection system (GE Healthcare). Immunoblotting experiments were carried out at least three times and representative images are shown. Densitometric quantitation of immunoblots was performed using Image Studio Lite Software. Changes of phosphorylated ERK1/2 to total ERK1/2 rations are expressed as percentage of the vehicle-treated controls. The following antibodies were used: Phospho-Erk1/2 Ab, Cell Signaling, #9101S; total Erk1/2 Ab, Cell Signaling, #9102S; SHP2 Ab, Bethyl, A301-544A, lot #1; GAPDH (14C10) mAb, Cell Signaling, #2118S, lot #14."}, "[2]": {"tested_on": "p-ERK1/2 in U-937 AML cells (SHP2 G60R)", "experiment": "Phospho-ERK1/2 immunoblot analysis, U-937", "format": "cell-based", "settings": "U-937, 24 h; #02 1, 3, 10, 30 μM; RMC-4550 1 μM", "from_the_text": "(§1) Oncogenic gain-of-function mutations in SHP2 drive leukemogenesis in a significant number of leukemia patients. However, due to their unique mechanism of action, the existing SHP2 allosteric inhibitors lack activity against the most common SHP2 oncogenic variants. Thus, we tested whether #02 can inhibit the growth of leukemia cells expressing oncogenic SHP2 variants. […] Using the U-937 AML cell line, which harbors a G60R oncogenic mutation in SHP2, we treated cells with either #02 or RMC-4550 at various concentrations, ranging from 0.123 to 30 μM (FIG. 4A). […] We also assessed the effects of #02 and RMC-4550 on ERK1/2 activation in the SHP2 mutant U-937 cell line. Similar to the immunoblot experiments described above, U-937 AML cells were treated with either vehicle control (DMSO), #02 (1, 3, 10, or 30 μM), or with RMC-4550 (1 μM) for 24 h and processed for p-ERK1/2 immunoblot analysis (FIG. 4B).\nTotal protein extracts were prepared in modified RIPA lysis buffer (25 mM Tris-HCl, pH 7.4, 10% glycerol, 0.2% Triton™ X-100, 150 mM NaCl, 2 mM Na3VO4, 1 mM EDTA) containing a protease inhibitor cocktail (Roche Applied Science, Indianapolis, IN). […] Densitometric quantitation of immunoblots was performed using Image Studio Lite Software. Changes of phosphorylated ERK1/2 to total ERK1/2 rations are expressed as percentage of the vehicle-treated controls. […]"}, "[3]": {"tested_on": "U-937 AML cells harboring G60R oncogenic mutation in SHP2", "experiment": "Cell viability assay, U-937 (SHP2 G60R)", "format": "cell-based", "settings": "U-937 cells (SHP2 G60R), 0.123 to 30 μM, 3 d", "from_the_text": "as §1\n(§2) Viability of AML, esophageal carcinoma, and TF-1 cells was assessed using the ATP-depletion assay CellTiter-Glo® (Promega). Cells were harvested at 1×10^6/mL to 2×10^6 cells/mL with cell numbers determined by trypan blue using the Countess Cell counter (Thermo Scientific) and resuspended in culture media. […] Luminescence was read on a Tecan Spark® Multimode Microplate Reader and data analyzed using Graph Pad Prism software."}, "[4]": {"tested_on": "patient-derived AML cells", "experiment": "Viability of AML patient-derived cells", "format": "cell-based, human", "settings": "10 μM, two patient samples, 2 d, 4 d, or 6 d", "from_the_text": "Patient-derived AML cells were obtained from Carol Burian and Dr. James Mason (Scripps MD Anderson, La Jolla, CA) under approved IRB protocol 13-6180. Peripheral blood mononuclear cells (PBMCs) were isolated by traditional Ficoll-Paque™ PLUS (17-1440-02, GE Healthcare) centrifugation according to the manufacturer's instructions, and red blood cells were lysed using RBC Lysis Buffer (Alfa Aesar, cat. #J62990). Final PBMCs were resuspended in Bambanker serum-free freezing medium (Wako Pure Chemical Industries, Ltd.) and stored frozen before cell viability was assessed as described below.\nas §2, with “media. 3K cells (in […]) were seeded in a 384-well format white, clear bottom microplate (#781098, Greiner) spotted with test compound or vehicle control (DMSO) using an Echo 555 Liquid Handler.” for “media.”"}, "[5]": {"tested_on": "TNBC cells (BT-549 and MDA-MB-468)", "experiment": "11-day colony formation assay", "format": "cell-based", "settings": "5, 10, or 20 μM, 11 days", "description": "(§3) Next, we performed an 11-day colony formation assay with TNBC cells treated with #02 or SHP099 at 5, 10, or 20 μM (FIG. 3D).\nMDA-MB-468 and […] triple-negative breast cancer cells were maintained in DMEM+10% FBS supplemented with 1× Penicillin-Streptomycin/L-Glutamine (Omega Scientific). 1.5K cells (in […]) were seeded per well of a standard 24-well tissue culture plate (Falcon) and allowed to adhere for 24 h, before the addition of drug(s) as described. After a further 96 h, media was replaced with fresh media containing the same test compounds and concentrations. After 11 days, media was removed and cells stained with 0.5% Crystal Violet (in 20% methanol) for 20 min with agitation @ 80 rpm. Stain was removed and plates with stained cells were washed by being submerged in excess deionized water and allowed to air dry overnight before imaging."}, "[6]": {"tested_on": "MOLM-13-Cas9-mCherry cells with SHP2 KO", "experiment": "SHP2 CRISPR-Cas9 knockout inhibitor selectivity assay (cell viability)", "format": "cell-based", "settings": "MOLM-13-Cas9-mCherry SHP2 KO cells, 72 h", "description": "(§4) Finally, we evaluated the selectivity of our top two compounds, #01 and #02, on MOLM-13 AML cells in which SHP2 was depleted using CRISPR-Cas9 knock-out (KO). High-efficiency Cas9-editing MOLM-13 cells were generated by transducingMOLM-13 cells with a Cas9 lentiviral construct. Stable clones were tested for editing efficiency by performing TIDE analysis (45), and these MOLM13-Cas9 cells were transduced with a lentiviral construct containing an AAVS1 single guide RNA (sgRNA) and an mCherry reporter for bulk-sorting of cells with successful AAVS1 editing. SHP2 KO was achieved by transducing MOLM-13-Cas9-mCherry cells with a lentivirus containing SHP2 dual sgRNAs, resulting in ˜80% reduction of SHP2 protein levels (FIG. 3G). #01, #02, and the SHP2 allosteric inhibitor SHP099 were tested in parallel on regular MOLM-13 cells (expressing WT SHP2) and MOLM-13-Cas9-mCherry cells with SHP2 KO. Cells were treated with inhibitors at various concentrations (ranging from […] to 58 nM) or vehicle control (DMSO) for 72 h, before cell viability was assessed.\nHigh-efficiency Cas9-editing MOLM-13 cells were generated by transducing MOLM-13 cells with the pLenti-Cas9-blasticidin construct (Addgene plasmid #52962) and selecting single stable clones using flow-sorting. Clones were then tested for editing efficiency by performing TIDE analysis (45). These MOLM13-Cas9 cells were then transduced with a lentiviral construct containing an AAVS sgRNA and an mCherry reporter out of frame and downstream of an AAVS sgRNA targeting site. […]\nFor SHP2 KO, dual sgRNAs targeting SHP2 were cloned in the pLentiGuide puro vector (Addgene plasmid #52963) using a published protocol (50). […] SHP2 KO was evaluated by immunoblotting. […] For SHP2 KO, MOLM-13-Cas9-mCherry cells were seeded in nontreated 6-well-plates ([…] in 2.5 mL), with cell numbers determined by trypan blue using the Countess Cell counter (Thermo Scientific). […] Cell viability was assessed using the ATP-depletion assay CellTiter-Glo® (Promega) as described above, and data were analyzed using GraphPad Prism software."}, "[7]": {"tested_on": "MOLM-13 AML cells (expressing WT SHP2)", "experiment": "Cell viability assay (CellTiter-Glo), MOLM-13", "format": "cell-based", "settings": "regular MOLM-13 cells, 72 h, CRISPR comparison experiment", "description": "as §3\nas §4, with “SHP2 KO was achieved by transducing MOLM-13-Cas9-mCherry cells with a lentivirus containing SHP2 dual sgRNAs, resulting in ˜80% reduction of SHP2 protein levels (FIG. 3G). #01, #02, and the SHP2 allosteric inhibitor SHP099 were tested in parallel on regular MOLM-13 cells (expressing WT SHP2) and MOLM-13-Cas9-mCherry cells with SHP2 KO.” left out\nViability of AML, esophageal carcinoma, and TF-1 cells was assessed using the ATP-depletion assay CellTiter-Glo® (Promega). Cells were harvested at 1×10^6/mL to 2×10^6 cells/mL with cell numbers determined by trypan blue using the Countess Cell counter (Thermo Scientific) and resuspended in culture media. […] Luminescence was read on a Tecan Spark® Multimode Microplate Reader and data analyzed using Graph Pad Prism software. […]"}, "[8]": {"tested_on": "MLL-AF10 leukemia cells expressing wild-type SHP2", "experiment": "Cell viability assay, MLL-AF10 cells expressing wild-type SHP2", "format": "cell-based, mouse", "description": "(§5) Cell viability assays of SHP099, #01, and #02 against mouse MLL-AF10 leukemia cells were conducted. Two MLL-AF10 cell lines were employed, one expressing wild-type SHP2, and the other expressing E76K mutant SHP2."}, "[9]": {"tested_on": "BT-549 triple-negative breast cancer cells", "experiment": "TNBC cell viability assay (CellTiter-Glo), BT-549", "format": "cell-based", "settings": "BT-549 cells, various concentrations", "description": "as §3\n(§6) Triple-negative breast cancer cell viability was assessed using the ATP-depletion assay CellTiter-Glo (Promega). Briefly, 2.5K cells in […] media (RPMI+10% FBS+1× Penicillin-Streptomycin (Omega Scientific)) were seeded per well of a 384-well tissue culture treated plate (Greiner). 25 nL of 1000× test compound were added using a Labcyte Echo acoustic dispenser and the cells incubated for 5 days before addition of […] of CellTiter-Glo reagent as described by the manufacturer. Luminescence was detected on a BioTek Synergy 2 microplate reader and the values normalized to those of vehicle (DMSO) treated controls before being plotted using GraphPad Prism."}, "[10]": {"tested_on": "MDA-MB-468 triple-negative breast cancer cells", "experiment": "TNBC cell viability assay (CellTiter-Glo), MDA-MB-468", "format": "cell-based", "settings": "MDA-MB-468 cells, various concentrations", "description": "as §3, §6"}, "[11]": {"tested_on": "MLL-AF10 leukemia cells expressing E76K mutant SHP2", "experiment": "Cell viability assay, MLL-AF10 cells expressing E76K mutant SHP2", "format": "cell-based, mouse", "description": "as §5"}},
  "data": [
    {"compound": "Cc1nc(N2CCC3(CC2)CO[C@@H](C)[C@H]3N)c(CO)nc1-c1cccc(Cl)c1Cl", "note": "[RMC-4550, reference compound]", "values": [
      {"measurement": "ERK1/2 activation (p-ERK1/2 levels)", "setting": "[1]", "value": "highly effective in impeding ERK1/2 activation"},
      {"measurement": "ERK1/2 activation (p-ERK1/2 levels)", "setting": "[2]", "value": "a decrease in p-ERK1/2 levels was not detectable"},
      {"measurement": "IC50", "setting": "[3]", "value": 33, "unit": "µM"},
      {"measurement": "effect on growth of patient-derived AML samples", "setting": "[4]", "value": "only affected the growth of sample 2"}
    ]},
    {"compound": "CC1(N)CCN(c2cnc(-c3cccc(Cl)c3Cl)c(N)n2)CC1", "note": "[SHP099, reference compound]", "values": [
      {"measurement": "effect on colony formation", "setting": "[5]", "value": "very weak effect on colony formation"},
      {"measurement": "effect on viability of SHP2 KO cells", "setting": "[6]", "value": "either no effect, or a greatly reduced effect"},
      {"measurement": "IC50", "setting": "[7]", "value": 9.4, "unit": "µM"},
      {"measurement": "IC50", "setting": "[8]", "value": 4, "unit": "µM"},
      {"measurement": "effect on TNBC cell viability", "setting": "[9]", "value": "very minor effect on TNBC cell viability"},
      {"measurement": "effect on TNBC cell viability", "setting": "[10]", "value": "very minor effect on TNBC cell viability"},
      {"measurement": "cell viability IC50", "setting": "[11]", "value": "insufficient for an IC50 value to be determined"}
    ]}
  ]
}
